# Target: T1, human DLK (Homo sapiens, UniProt Q12852)
# T1 sequence (Q12852 1-859): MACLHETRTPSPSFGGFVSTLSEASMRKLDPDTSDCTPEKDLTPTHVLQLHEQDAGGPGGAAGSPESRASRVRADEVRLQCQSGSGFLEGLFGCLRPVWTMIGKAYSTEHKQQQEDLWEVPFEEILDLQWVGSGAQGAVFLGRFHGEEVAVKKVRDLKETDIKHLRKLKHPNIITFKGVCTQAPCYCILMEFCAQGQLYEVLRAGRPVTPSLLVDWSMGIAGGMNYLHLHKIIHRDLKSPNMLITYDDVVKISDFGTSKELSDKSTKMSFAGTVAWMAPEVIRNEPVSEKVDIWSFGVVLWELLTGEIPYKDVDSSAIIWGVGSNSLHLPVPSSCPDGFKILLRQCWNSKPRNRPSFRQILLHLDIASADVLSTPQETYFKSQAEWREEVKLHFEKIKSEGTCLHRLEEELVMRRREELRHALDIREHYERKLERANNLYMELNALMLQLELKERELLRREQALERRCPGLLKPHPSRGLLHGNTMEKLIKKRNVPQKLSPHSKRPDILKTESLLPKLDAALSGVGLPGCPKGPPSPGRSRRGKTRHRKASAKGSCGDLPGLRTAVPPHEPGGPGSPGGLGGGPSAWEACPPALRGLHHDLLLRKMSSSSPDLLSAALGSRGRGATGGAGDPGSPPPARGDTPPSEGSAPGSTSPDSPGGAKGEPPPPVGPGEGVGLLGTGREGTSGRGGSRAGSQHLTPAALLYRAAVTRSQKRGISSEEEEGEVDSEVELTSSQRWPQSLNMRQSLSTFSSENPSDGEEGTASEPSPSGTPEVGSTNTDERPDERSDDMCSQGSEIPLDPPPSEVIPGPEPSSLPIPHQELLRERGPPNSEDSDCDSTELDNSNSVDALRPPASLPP
# Assay: DLK Kd Determinations (KINOMEscan KdELECT, DiscoveRx)
# Design: full length of human DLK (amino acids 1-859); host or cells: transiently transfected HEK293 cells; unpurified extract
# Conditions: fusion protein of full length human DLK (amino acids 1-859) and NFkB DNA binding domain; qPCR readout; duplicate
# Procedure: The DLK dissociation constants (Kd) have been determined in the KINOMEscan KdELECT Service at DiscoveRx.
# A fusion protein of full length of human DLK (amino acids 1-859) and the DNA binding domain of NFkB was expressed in transiently transfected HEK293 cells. From these HEK 293 cells, extracts were prepared in M-PER extraction buffer (Pierce) in the presence of Protease Inhibitor Cocktail Complete (Roche) and Phosphatase Inhibitor Cocktail Set II (Merck) per manufacturers' instructions. The DLK fusion protein was labeled with a chimeric double-stranded DNA tag containing the NFkB binding site (5′-GGGAATTCCC-3′) fused to an amplicon for qPCR readout, which was added directly to the expression extract (the final concentration of DNA-tag in the binding reaction is 0.1 nM).
# Streptavidin-coated magnetic beads (Dynal M280) were treated with a biotinylated small molecule ligand for 30 minutes at room temperature to generate affinity resins the binding assays. The liganded beads were blocked with excess biotin and washed with blocking buffer (SeaBlock (Pierce), 1% BSA, 0.05% Tween 20, 1 mM DTT) to remove unbound ligand and to reduce nonspecific binding.
# Extracts were used directly in binding assays without any enzyme purification steps at a ≧10,000-fold overall stock dilution (final DNA-tagged enzyme concentration <0.1 nM). Extracts were loaded with DNA-tag and diluted into the binding reaction in a two step process. First extracts were diluted 1:100 in 1× binding buffer (PBS/0.05% Tween 20/10 mM DTT/0.1% BSA/2 μg/ml sonicated salmon sperm DNA) containing 10 nM DNA-tag. This dilution was allowed to equilibrate at room temperature for 15 minutes and then subsequently diluted 1:100 in 1× binding buffer. Test compounds were prepared as 111× stocks in 100% DMSO. Kds were determined using an 11-point 3-fold compound dilution series with three DMSO control points. All compounds for Kd measurements are distributed by acoustic transfer (non-contact dispensing) in 100% DMSO. The compounds were then diluted directly into the assays such that the final concentration of DMSO was 0.9%. All reactions performed in polypropylene 384-well plates. Each was a final volume of 0.02 mL. Assays were incubated with shaking for 1 hour at room temperature. Then the beads were pelleted and washed with wash buffer (1×PBS, 0.05% Tween 20) to remove displaced kinase and test compound. The washed based were re-suspended in elution buffer (1×PBS, 0.05% Tween 20, 0.5 μM non-biotinylated affinity ligand) and incubated at room temperature with shaking for 30 minutes. The kinase concentration in the eluates was measured by qPCR. qPCR reactions were assembled by adding 2.5 μL of kinase eluate to 7.5 μL of qPCR master mix containing 0.15 μM amplicon primers and 0.15 μM amplicon probe. The qPCR protocol consisted of a 10 minute hot start at 95° C., followed by 35 cycles of 95° C. for 15 seconds, 60° C. for 1 minute.
# Test compounds were prepared as 111× stocks in 100% DMSO. Kds were determined using an 11-point 3-fold compound dilution series with three DMSO control points. All compounds for Kd measurements are distributed by acoustic transfer (non-contact dispensing) in 100% DMSO. The compounds were then diluted directly into the assays such that the final concentration of DMSO was 0.9%. The Kds were determined using a compound top concentration of 30,000 nM. Kd measurements were performed in duplicate.
# Binding constants (Kds) were calculated with a standard dose-response curve using the Hill equation: […]
# The Hill Slope was set to −1. Curves were fitted using a non-linear least square fit with the Levenberg-Marquardt algorithm (Levenberg, K., A method for the solution of certain non-linear problems in least squares, Q. Appl. Math. 2, 164-168 (1944)). See also Fabian, M. A. et al. A small molecule-kinase interaction map for clinical kinase inhibitors. Nat. Biotechnol. […]
row,Compound,Kd
1,"CC(C)c1nc(-c2cnc(N)c(OC(F)F)c2)cn1[C@H]1[C@@H]2CN(CC(F)F)C[C@@H]21 [Example 112, 5-(1-((1R,5S,6s)-3-(2,2-difluoroethyl)-3-azabicyclo[3.1.0]hexan-6-yl)-2-isopropyl-1H-imidazol-4-yl)-3-(difluoromethoxy)pyridin-2-amine]",160 nM
2,"CC(C)c1nc(-c2cnc(N)c(C(F)(F)F)c2)cn1C1CN(C2COC2)C1 [Example 27, 5-(2-isopropyl-1-(1-(oxetan-3-yl)azetidin-3-yl)-1H-imidazol-4-yl)-3-(trifluoromethyl)pyridin-2-amine]",270 nM
3,"Nc1ncc(-c2cn(C3CC3)c(CC(F)(F)F)n2)cc1C(F)(F)F [Example 46, 5-(1-cyclopropyl-2-(2,2,2-trifluoroethyl)-1H-imidazol-4-yl)-3-(trifluoromethyl)pyridin-2-amine]",280 nM
4,"Nc1ncc(-c2cn([C@H]3[C@@H]4CN(CC(F)(F)F)C[C@@H]43)c(C3CC3)n2)cc1C(F)(F)F [Example 93, 5-(2-cyclopropyl-1-((1R,5S,6s)-3-(2,2,2-trifluoroethyl)-3-azabicyclo[3.1.0]hexan-6-yl)-1H-imidazol-4-yl)-3-(trifluoromethyl)pyridin-2-amine]",270 nM
5,"Nc1ncc(-c2cn([C@H]3[C@@H]4CN(C5COC5)C[C@@H]43)c(C3CCCC3)n2)cc1OC(F)(F)F [Example 63, 5-(2-cyclopentyl-1-((1R,5S,6s)-3-(oxetan-3-yl)-3-azabicyclo[3.1.0]hexan-6-yl)-1H-imidazol-4-yl)-3-(trifluoromethoxy)pyridin-2-amine]",140 nM
6,"CC(C)c1nc(-c2cnc(N)c(C(F)(F)F)c2)cn1CC1CCOCC1 [Example 34, 5-(2-isopropyl-1-((tetrahydro-2H-pyran-4-yl)methyl)-1H-imidazol-4-yl)-3-(trifluoromethyl)pyridin-2-amine]",870 nM
7,"Nc1ncc(-c2cn(C3CC3)c(C3CC3)n2)cc1C(F)(F)F [Example 9, 5-(1,2-dicyclopropyl-1H-imidazol-4-yl)-3-(trifluoromethyl)pyridin-2-amine]",240 nM
8,"CC(C)c1nc(-c2cnc(N)c(C(F)(F)F)c2)cn1C1CCN(C2COC2)C1 (centres unmarked) [Example 36, 5-(2-isopropyl-1-(1-(oxetan-3-yl)pyrrolidin-3-yl)-1H-imidazol-4-yl)-3-(trifluoromethyl)pyridin-2-amine]",350 nM
9,"CC(C)c1nc(-c2cnc(N)c(C(F)(F)F)c2)cn1C1CCCC1 [Example 28, 5-(1-cyclopentyl-2-isopropyl-1H-imidazol-4-yl)-3-(trifluoromethyl)pyridin-2-amine]",220 nM
10,"CC(C)c1nc(-c2cnc(N)c(C(F)(F)F)c2)cn1CCC1CCOCC1 [Example 35, 5-(2-isopropyl-1-(2-(tetrahydro-2H-pyran-4-yl)ethyl)-1H-imidazol-4-yl)-3-(trifluoromethyl)pyridin-2-amine]",160 nM
11,"CC(C)c1nc(-c2cnc(N)c(C(F)(F)F)c2)cn1[C@H]1C[C@H](F)C1 [Example 25, 5-(1-((1r,3r)-3-fluorocyclobutyl)-2-isopropyl-1H-imidazol-4-yl)-3-(trifluoromethyl)pyridin-2-amine]",200 nM
12,"CC(C)c1nc(-c2cnc(N)c(C(F)(F)F)c2)cn1C1CC2(COC2)C1 [Example 23, 5-(2-isopropyl-1-(2-oxaspiro[3.3]heptan-6-yl)-1H-imidazol-4-yl)-3-(trifluoromethyl)pyridin-2-amine]",220 nM
13,"Nc1ncc(-c2cn([C@H]3[C@@H]4CN(C5COC5)C[C@@H]43)c(C3CCC3)n2)cc1OC(F)(F)F [Example 56, 5-(2-cyclobutyl-1-((1R,5S,6s)-3-(oxetan-3-yl)-3-azabicyclo[3.1.0]hexan-6-yl)-1H-imidazol-4-yl)-3-(trifluoromethoxy)pyridin-2-amine]",280 nM
14,"Nc1ncc(-c2cn([C@H]3[C@@H]4CN(C5COC5)C[C@@H]43)c(C3CCC3)n2)cc1C(F)(F)F [Example 51, 5-(2-cyclobutyl-1-((1R,5S,6s)-3-(oxetan-3-yl)-3-azabicyclo[3.1.0]hexan-6-yl)-1H-imidazol-4-yl)-3-(trifluoromethyl)pyridin-2-amine]",130 nM

# Stronger by Kd, values ahead:
row,Kd,Compound
1,120 nM,"Nc1ncc(-c2cn([C@H]3[C@@H]4CN(C5COC5)C[C@@H]43)c(C3CCCC3)n2)cc1OC(F)F [Example 64, 5-(2-cyclopentyl-1-((1R,5S,6s)-3-(oxetan-3-yl)-3-azabicyclo[3.1.0]hexan-6-yl)-1H-imidazol-4-yl)-3-(difluoromethoxy)pyridin-2-amine]"
2,110 nM,"CC(=O)N1C[C@@H]2[C@H](C1)[C@H]2n1cc(-c2cnc(N)c(OC(F)(F)F)c2)nc1C1CC1 [Example 54, 1-((1R,5S)-6-(4-(6-amino-5-(trifluoromethoxy)pyridin-3-yl)-2-cyclopropyl-1H-imidazol-1-yl)-3-azabicyclo[3.1.0]hexan-3-yl)ethan-1-one]"
3,92 nM,"Nc1ncc(-c2cn([C@H]3[C@@H]4CN(CC(F)F)C[C@@H]43)c(C3CC3)n2)cc1OC(F)F [Example 103, 5-(2-cyclopropyl-1-((1R,5S,6s)-3-(2,2-difluoroethyl)-3-azabicyclo[3.1.0]hexan-6-yl)-1H-imidazol-4-yl)-3-(difluoromethoxy)pyridin-2-amine]"
4,81 nM,"Nc1ncc(-c2cn([C@H]3[C@@H]4CN(CCF)C[C@@H]43)c(CC3CC3)n2)cc1OC(F)(F)F [Example 101, 5-(2-(cyclopropylmethyl)-1-((1R,5S,6s)-3-(2-fluoroethyl)-3-azabicyclo[3.1.0]hexan-6-yl)-1H-imidazol-4-yl)-3-(trifluoromethoxy)pyridin-2-amine]"
5,66 nM,"CC(C)c1nc(-c2cnc(N)c(OC(F)(F)F)c2)cn1[C@H]1[C@@H]2CN(CC(F)F)C[C@@H]21 [Example 109, 5-(1-((1R,5S,6s)-3-(2,2-difluoroethyl)-3-azabicyclo[3.1.0]hexan-6-yl)-2-isopropyl-1H-imidazol-4-yl)-3-(trifluoromethoxy)pyridin-2-amine]"
6,62 nM,"CC(=O)N1C[C@@H]2[C@H](C1)[C@H]2n1cc(-c2cnc(N)c(OC(F)F)c2)nc1C1CC1 [Example 118, 1-((1R,5S,6s)-6-(4-(6-amino-5-(difluoromethoxy)pyridin-3-yl)-2-cyclopropyl-1H-imidazol-1-yl)-3-azabicyclo[3.1.0]hexan-3-yl)ethan-1-one]"

# — patent publication US20180057507A1, “INHIBITORS OF DUAL LEUCINE ZIPPER (DLK) KINASE FOR THE TREATMENT OF DISEASE” (Board of Regents, The University of Texas System, priority 2016, published 2018)
